The results in this text go back to ChEMBL document CHEMBL1136247, “Alpha-keto amides as inhibitors of histone deacetylase” (Bioorg Med Chem Lett, 2003).

For experiment [1], the target named is Histone deacetylase (HDAC1 and HDAC2) (Homo sapiens, UniProt Q13547+Q92769). Nature of the experiment: Inhibitory activity against mixture of histone deacetylase 1 (HDAC1) and histone deacetylase 2 (HDAC2) from nuclear extraction of K562 erythroleukemia cells.
In experiment [2] the test system is HT-1080. Nature of the experiment: Compound was tested for inhibition of proliferation of HT1080 cells. The experiment is classed as functional, cell-based. The following applies: Homo sapiens.
Experiment [3] deals with MDA-MB-435. As to the kind of experiment: Compound was tested for inhibition of proliferation of MDA-435 cells. The following applies: Homo sapiens. The format is functional, cell-based.

As a reminder, the IC50 is the concentration that inhibits the measured activity by half. On to `CCNC(=O)C(=O)CCCCCCOc1ccc(-c2ccccc2)cc1`, for which, in experiment [1], the 50% inhibitory concentration (IC50) is 4.9 nM.
Consider `CNC(=O)C(=O)CCCCCCC(=O)Nc1nc(-c2ccncc2)cs1`, for which the IC50 in experiment [2] was found to be 670 nM; in experiment [3] it was 2000 nM.
With `CNC(=O)C(=O)CCCCCCC(=O)Nc1cnc2ccccc2c1`, the IC50 in experiment [2] was found to be 2900 nM; in experiment [3], 4000 nM; in experiment [1] it was 9.5 nM.
Regarding `CN(C)CCNC(=O)C(=O)CCCCCCOc1ccc(-c2ccccc2)cc1`, the IC50 in experiment [1] was greater than 50 nM.
The same measure, in the same setting: next, `O=C(O)CNC(=O)C(=O)CCCCCCOc1ccc(-c2ccccc2)cc1`: greater than 50 nM; `CNC(=O)C(=O)COCCCCOc1ccc(-c2ccccc2)cc1`: greater than 10000 nM; `CNC(=O)C(=O)CCCCCCS(=O)(=O)c1ccc(-c2ccccc2)cc1`: 143 nM.
In the case of `O=C(O)C(=O)CCCCCCOc1ccc(-c2ccccc2)cc1`, in experiment [1], the IC50 is given as 3.7 nM.
Take `CNC(=O)C(=O)CCCCCCC(=O)Nc1nc(-c2ccc3c(c2)CCCC3)cs1`: the IC50 in experiment [2] was greater than 50000 nM; in experiment [3], greater than 50000 nM; in experiment [1], 1.4 nM.
Take `CNC(=O)C(=O)CCCCCCNC(=O)c1cccc(-c2ccccc2)c1`: the half-maximal inhibitory concentration (IC50) in experiment [1] is 21 nM.
On to `CNC(=O)C(=O)CCCCCCC(=O)Nc1ccc2ccccc2c1`, for which the IC50 in experiment [2] came out at 17000 nM; in experiment [3], 22000 nM; in experiment [1], 9.4 nM.
`CNC(=O)C(=O)C#CCCCCOc1ccc(-c2ccccc2)cc1`: the 50% inhibitory concentration (IC50) in experiment [1] is greater than 1000 nM.
Regarding `CNC(=O)C(=O)CCCCCCC(=O)Nc1nc(-c2ccccc2)cs1`, the IC50 in experiment [2] amounted to 1200 nM; in experiment [3], 3100 nM; in experiment [1] it was 11 nM.
With `COC(=O)C(=O)CCCCCCCOc1ccc(-c2ccccc2)cc1`, the half-inhibitory concentration (IC50) in experiment [1] was 0.109 nM.
Take `CNC(=O)C(=O)CCCCCCC(=O)Nc1ccccc1`: the half-maximal inhibitory concentration (IC50) in experiment [1] is given as 338 nM.
With `CNC(=O)C(=O)CCCCCCC(=O)Nc1nc(-c2ccc(CCN(C)C)cc2)cs1`, the values for the IC50 in experiment [2], in experiment [3] and in experiment [1] were 120 nM, 160 nM and 3.1 nM, respectively.
As for `CNC(=O)C(=O)CCCCCCC(=O)Nc1ccc2cc[nH]c2c1`, the values for the half-maximal inhibitory concentration (IC50) in experiment [2], in experiment [3] and in experiment [1] were 3400 nM, 4500 nM and 18 nM, respectively.
Turning to `CNC(=O)C(=O)CCCCCCSc1ccc(-c2ccccc2)cc1`, the half-maximal inhibitory concentration (IC50) in experiment [1] was 526 nM.
The same measure, in the same setting: to `CN(C)C(=O)C(=O)CCCCCCOc1ccc(-c2ccccc2)cc1` belongs greater than 5 nM.
The same measure, in the same setting: to `CNC(=O)C(=O)CCCCCCNS(=O)(=O)c1ccc(-c2ccccc2)cc1` belongs 241 nM; to `CNC(=O)C(=O)CCCCCCOc1ccc(-c2ccccc2)cc1`, 0.11 nM; to `CNC(=O)C(=O)CCCCCCC(=O)Nc1ccc(-c2ccccc2)cc1`, 201 nM.
Same read-out and setting: to `COC(=O)C(=O)CCCCCCOc1ccc(-c2ccccc2)cc1` belongs 0.062 nM.
Turning to `CNC(=O)C(=O)CCCCCCC(=O)Nc1cccc(Oc2ccccc2)c1`, the IC50 in experiment [2] turned out to be 35000 nM; in experiment [3], 39000 nM; in experiment [1] it was 1041 nM.
Turning to `CNC(=O)C(=O)CCCCCCC(=O)Nc1cccc(-c2ccccc2)c1`, the IC50 in experiment [1] is recorded as 3.7 nM.
On the same count and under the same terms, next, `NC(=O)C(=O)CCCCCCOc1ccc(-c2ccccc2)cc1`: greater than 50 nM.
Consider `CNC(=O)C(=O)CCCCCCC(=O)Nc1nc2ccccc2s1`, for which the IC50 was 13000 nM in experiment [2], 14000 nM in experiment [3] and 133 nM in experiment [1].
Consider `CNC(=O)C(=O)CCCCCO/N=C\c1ccc(-c2ccccc2)cc1`, for which, in experiment [1], the half-maximal inhibitory concentration (IC50) is 853 nM.
In the case of `CNC(=O)C(=O)CCCCCCC(=O)Nc1nc(-c2ccc(OC)cc2)cs1`, the IC50 came to 2700 nM in experiment [2], 5800 nM in experiment [3] and 9.1 nM in experiment [1].
For `COC(=O)C(=O)CCCCCOc1ccc(-c2ccccc2)cc1`, in experiment [1], the IC50 turned out to be 0.082 nM.
